# Results reported in the kinase profiling compilation of Christmann-Franck et al. (2016).
# Columns and labels:
# Assay in all cases: KINOMEscan competition binding
# Conditions in all cases: compound 10.0 µM
# BRSK1 (human) = BRSK1 (human) (UniProt Q8TDC3)
# FYN (human) = FYN (human) (UniProt P06241)
# FRK (human) = FRK (human) (UniProt P42685)
# DDR2 (human) = DDR2 (human) (UniProt Q16832)
# MAP3K7 (human) = MAP3K7 (human) (UniProt O43318)
# ROCK2 (human) = ROCK2 (human) (UniProt O75116)
# MAP2K3 (human) = MAP2K3 (human) (UniProt P46734)
# PKMYT1 (human) = PKMYT1 (human) (UniProt Q99640)
# INSR (human) = INSR (human) (UniProt P06213)
# EPHA4 (human) = EPHA4 (human) (UniProt P54764)
# ADCK3 (human) = ADCK3 (human) (UniProt Q8NI60)
# DAPK2 (human) = DAPK2 (human) (UniProt Q9UIK4)
# TGFBR2 (human) = TGFBR2 (human) (UniProt P37173)
# CSNK1A1L (human) = CSNK1A1L (human) (UniProt Q8N752)
# CSF1R (human) = CSF1R (human) (UniProt P07333)
# FLT3 (human) = FLT3 (human) (UniProt P36888)
# MAP3K9 (human) = MAP3K9 (human) (UniProt P80192)
# INSRR (human) = INSRR (human) (UniProt P14616)
# ULK2 (human) = ULK2 (human) (UniProt Q8IYT8)
# TLK1 (human) = TLK1 (human) (UniProt Q9UKI8)
# LIMK2 (human) = LIMK2 (human) (UniProt P53671)
# EPHA7 (human) = EPHA7 (human) (UniProt Q15375)
# MAPK14 (human) = MAPK14 (human) (UniProt Q16539)
# CAMK2G (human) = CAMK2G (human) (UniProt Q13555)
# MAPK4 (human) = MAPK4 (human) (UniProt P31152)
# PAK7 (human) = PAK7 (human) (UniProt Q9P286)
# ACVR2B (human) = ACVR2B (human) (UniProt Q13705)
# AURKA (human) = AURKA (human) (UniProt O14965)
# CLK3 (human) = CLK3 (human) (UniProt P49761)
# CAMK2A (human) = CAMK2A (human) (UniProt Q9UQM7)
# PHKG2 (human) = PHKG2 (human) (UniProt P15735)
# DCLK1 (human) = DCLK1 (human) (UniProt O15075)
# RPS6KA5 KD2 (human) = RPS6KA5 KD2 (human) (UniProt O75582)
# PRKACA (human) = PRKACA (human) (UniProt P17612)
# HIPK1 (human) = HIPK1 (human) (UniProt Q86Z02)
# SIK2 (human) = SIK2 (human) (UniProt Q9H0K1)
# MAPK7 (human) = MAPK7 (human) (UniProt Q13164)
# BMPR1A (human) = BMPR1A (human) (UniProt P36894)
# PLK3 (human) = PLK3 (human) (UniProt Q9H4B4)
# STK11 (human) = STK11 (human) (UniProt Q15831)
# STK11 (human), sequence (Q15831 whole entry, looked up): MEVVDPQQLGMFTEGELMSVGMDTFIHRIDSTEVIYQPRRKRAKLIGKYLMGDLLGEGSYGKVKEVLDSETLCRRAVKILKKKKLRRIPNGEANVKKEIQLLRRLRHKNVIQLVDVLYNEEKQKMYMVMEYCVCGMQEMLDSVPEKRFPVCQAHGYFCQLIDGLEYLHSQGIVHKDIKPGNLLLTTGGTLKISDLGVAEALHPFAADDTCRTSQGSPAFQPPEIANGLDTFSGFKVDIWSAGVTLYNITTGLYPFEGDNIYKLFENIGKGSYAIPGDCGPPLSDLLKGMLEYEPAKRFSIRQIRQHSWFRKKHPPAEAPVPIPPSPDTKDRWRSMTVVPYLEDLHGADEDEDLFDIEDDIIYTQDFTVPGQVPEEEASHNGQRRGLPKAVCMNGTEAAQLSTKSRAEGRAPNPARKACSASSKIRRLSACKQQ
# CAMK2A (human), sequence (Q9UQM7 whole entry, looked up): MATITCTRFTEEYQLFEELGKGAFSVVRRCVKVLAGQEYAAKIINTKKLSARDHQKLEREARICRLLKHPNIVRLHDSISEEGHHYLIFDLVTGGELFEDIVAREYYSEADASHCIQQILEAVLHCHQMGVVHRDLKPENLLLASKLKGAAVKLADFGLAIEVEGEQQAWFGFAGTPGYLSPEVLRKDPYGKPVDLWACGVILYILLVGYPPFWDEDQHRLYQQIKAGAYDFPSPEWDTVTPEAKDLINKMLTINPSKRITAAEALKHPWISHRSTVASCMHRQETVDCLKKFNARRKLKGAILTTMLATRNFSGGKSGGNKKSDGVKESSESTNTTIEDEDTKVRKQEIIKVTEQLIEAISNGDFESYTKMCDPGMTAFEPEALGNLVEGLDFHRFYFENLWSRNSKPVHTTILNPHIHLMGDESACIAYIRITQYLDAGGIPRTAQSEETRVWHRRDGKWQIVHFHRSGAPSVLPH
# EPHA4 (human), sequence (P54764 whole entry, looked up): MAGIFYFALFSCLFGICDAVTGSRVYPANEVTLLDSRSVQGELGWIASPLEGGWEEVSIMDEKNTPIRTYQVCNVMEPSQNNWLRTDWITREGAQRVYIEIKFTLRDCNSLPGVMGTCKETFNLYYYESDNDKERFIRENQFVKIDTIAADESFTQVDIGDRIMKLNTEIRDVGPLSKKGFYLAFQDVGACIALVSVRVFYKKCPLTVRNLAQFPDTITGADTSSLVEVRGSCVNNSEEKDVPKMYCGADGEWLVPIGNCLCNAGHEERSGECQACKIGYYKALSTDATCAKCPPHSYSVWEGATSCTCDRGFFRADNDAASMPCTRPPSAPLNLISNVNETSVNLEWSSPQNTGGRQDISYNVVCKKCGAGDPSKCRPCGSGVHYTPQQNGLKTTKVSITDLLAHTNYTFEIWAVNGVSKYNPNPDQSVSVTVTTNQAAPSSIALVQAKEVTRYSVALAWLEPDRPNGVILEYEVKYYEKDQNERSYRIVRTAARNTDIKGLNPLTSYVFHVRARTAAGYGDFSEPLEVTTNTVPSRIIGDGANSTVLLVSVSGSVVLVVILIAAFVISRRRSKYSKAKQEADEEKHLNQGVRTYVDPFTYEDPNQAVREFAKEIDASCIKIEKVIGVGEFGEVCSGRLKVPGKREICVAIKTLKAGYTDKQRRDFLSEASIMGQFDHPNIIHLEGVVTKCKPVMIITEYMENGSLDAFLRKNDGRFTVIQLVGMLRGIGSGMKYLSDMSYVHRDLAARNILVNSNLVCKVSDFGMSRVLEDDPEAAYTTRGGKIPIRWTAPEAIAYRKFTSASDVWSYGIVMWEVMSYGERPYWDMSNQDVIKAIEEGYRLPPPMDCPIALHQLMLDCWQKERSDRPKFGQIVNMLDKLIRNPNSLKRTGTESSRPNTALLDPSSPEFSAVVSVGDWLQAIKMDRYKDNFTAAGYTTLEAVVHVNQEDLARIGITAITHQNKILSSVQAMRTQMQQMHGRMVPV
# RPS6KA5 KD2 (human), sequence (O75582 whole entry, looked up): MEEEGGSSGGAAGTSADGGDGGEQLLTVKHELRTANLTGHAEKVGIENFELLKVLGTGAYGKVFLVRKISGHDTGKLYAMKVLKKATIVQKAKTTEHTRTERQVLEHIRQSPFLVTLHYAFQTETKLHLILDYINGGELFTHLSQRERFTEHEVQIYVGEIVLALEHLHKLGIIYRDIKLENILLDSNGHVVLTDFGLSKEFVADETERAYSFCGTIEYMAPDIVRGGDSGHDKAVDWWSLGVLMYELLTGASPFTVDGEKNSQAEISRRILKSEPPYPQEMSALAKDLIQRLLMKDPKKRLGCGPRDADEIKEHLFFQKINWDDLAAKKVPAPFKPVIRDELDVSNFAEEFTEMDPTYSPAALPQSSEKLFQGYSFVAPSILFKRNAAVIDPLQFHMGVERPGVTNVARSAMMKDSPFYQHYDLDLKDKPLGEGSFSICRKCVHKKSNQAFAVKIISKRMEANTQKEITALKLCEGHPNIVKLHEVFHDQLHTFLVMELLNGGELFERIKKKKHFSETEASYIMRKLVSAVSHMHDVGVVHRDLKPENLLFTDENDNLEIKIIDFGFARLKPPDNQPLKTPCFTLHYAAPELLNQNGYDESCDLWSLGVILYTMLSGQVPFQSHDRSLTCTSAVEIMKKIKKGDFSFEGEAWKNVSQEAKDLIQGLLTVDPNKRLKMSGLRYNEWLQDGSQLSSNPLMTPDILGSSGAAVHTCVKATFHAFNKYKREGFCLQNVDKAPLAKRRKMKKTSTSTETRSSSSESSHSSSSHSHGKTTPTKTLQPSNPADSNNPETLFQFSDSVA
# INSR (human), sequence (P06213 whole entry, looked up): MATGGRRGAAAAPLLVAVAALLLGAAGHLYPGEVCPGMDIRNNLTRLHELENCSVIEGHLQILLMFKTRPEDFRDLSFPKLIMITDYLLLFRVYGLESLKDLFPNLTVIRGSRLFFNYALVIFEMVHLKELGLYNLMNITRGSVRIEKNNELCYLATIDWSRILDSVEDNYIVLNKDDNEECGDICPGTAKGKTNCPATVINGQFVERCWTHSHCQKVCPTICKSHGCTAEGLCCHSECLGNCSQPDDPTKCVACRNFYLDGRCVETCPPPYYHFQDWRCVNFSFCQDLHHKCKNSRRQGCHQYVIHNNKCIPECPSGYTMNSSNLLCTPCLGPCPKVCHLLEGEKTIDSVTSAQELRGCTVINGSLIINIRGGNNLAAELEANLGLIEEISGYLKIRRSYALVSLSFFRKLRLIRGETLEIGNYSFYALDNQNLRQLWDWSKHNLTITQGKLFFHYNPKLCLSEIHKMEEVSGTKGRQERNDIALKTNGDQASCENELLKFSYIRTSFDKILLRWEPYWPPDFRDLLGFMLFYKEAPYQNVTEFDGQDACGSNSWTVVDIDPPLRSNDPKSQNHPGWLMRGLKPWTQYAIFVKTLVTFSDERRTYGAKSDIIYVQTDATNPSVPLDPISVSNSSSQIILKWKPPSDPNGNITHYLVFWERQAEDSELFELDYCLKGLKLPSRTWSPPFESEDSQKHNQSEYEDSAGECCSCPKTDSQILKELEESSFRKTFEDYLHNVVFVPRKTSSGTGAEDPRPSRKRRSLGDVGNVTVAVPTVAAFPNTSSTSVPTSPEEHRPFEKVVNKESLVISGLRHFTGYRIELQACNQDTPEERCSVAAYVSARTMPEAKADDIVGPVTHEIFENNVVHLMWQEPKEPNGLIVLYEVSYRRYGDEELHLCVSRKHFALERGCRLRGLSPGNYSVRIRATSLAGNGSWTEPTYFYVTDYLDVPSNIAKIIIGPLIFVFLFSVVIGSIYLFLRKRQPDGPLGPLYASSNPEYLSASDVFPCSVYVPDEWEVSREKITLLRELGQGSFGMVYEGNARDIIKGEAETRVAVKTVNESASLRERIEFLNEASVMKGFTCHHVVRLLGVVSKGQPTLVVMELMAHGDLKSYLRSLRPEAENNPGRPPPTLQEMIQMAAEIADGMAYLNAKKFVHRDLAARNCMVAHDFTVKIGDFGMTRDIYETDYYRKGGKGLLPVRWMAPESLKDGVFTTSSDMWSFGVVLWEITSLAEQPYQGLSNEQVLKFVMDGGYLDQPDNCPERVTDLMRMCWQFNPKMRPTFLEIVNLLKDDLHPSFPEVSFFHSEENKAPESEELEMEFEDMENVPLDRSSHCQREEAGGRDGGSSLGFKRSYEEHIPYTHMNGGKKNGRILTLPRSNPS
# PKMYT1 (human), sequence (Q99640 whole entry, looked up): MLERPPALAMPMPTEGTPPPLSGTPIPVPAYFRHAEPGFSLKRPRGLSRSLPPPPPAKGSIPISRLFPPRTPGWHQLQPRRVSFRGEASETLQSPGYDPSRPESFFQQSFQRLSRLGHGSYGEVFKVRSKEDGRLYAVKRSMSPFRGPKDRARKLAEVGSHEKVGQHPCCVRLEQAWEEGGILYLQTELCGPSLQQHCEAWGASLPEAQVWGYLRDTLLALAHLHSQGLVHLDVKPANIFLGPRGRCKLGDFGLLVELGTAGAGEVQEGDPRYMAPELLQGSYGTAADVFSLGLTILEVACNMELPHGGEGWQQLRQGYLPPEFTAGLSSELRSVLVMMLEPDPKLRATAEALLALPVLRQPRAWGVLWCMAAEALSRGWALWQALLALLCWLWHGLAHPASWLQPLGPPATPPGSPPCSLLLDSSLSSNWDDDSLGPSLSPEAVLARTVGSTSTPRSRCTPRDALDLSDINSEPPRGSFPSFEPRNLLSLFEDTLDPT
# CLK3 (human), sequence (P49761 whole entry, looked up): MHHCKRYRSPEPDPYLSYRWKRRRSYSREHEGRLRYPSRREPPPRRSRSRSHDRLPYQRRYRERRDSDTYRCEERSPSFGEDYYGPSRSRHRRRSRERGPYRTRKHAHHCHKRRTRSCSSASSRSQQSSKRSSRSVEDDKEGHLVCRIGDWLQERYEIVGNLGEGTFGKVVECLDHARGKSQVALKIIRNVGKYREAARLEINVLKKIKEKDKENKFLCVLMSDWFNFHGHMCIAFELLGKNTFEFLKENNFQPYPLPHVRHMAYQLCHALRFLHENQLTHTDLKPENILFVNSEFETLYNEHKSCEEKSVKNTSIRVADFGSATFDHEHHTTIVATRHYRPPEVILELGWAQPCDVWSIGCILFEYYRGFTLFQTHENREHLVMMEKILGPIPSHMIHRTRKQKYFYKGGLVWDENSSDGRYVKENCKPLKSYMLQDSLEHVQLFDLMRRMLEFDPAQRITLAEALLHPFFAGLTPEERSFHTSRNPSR
Compound,"kinase still bound, per cent of control (BRSK1 (human))","kinase still bound, per cent of control (FYN (human))","kinase still bound, per cent of control (FRK (human))","kinase still bound, per cent of control (DDR2 (human))","kinase still bound, per cent of control (MAP3K7 (human))","kinase still bound, per cent of control (ROCK2 (human))","kinase still bound, per cent of control (PKMYT1 (human))","kinase still bound, per cent of control (INSR (human))","kinase still bound, per cent of control (EPHA4 (human))","kinase still bound, per cent of control (ADCK3 (human))","kinase still bound, per cent of control (DAPK2 (human))","kinase still bound, per cent of control (TGFBR2 (human))","kinase still bound, per cent of control (CSNK1A1L (human))","kinase still bound, per cent of control (CSF1R (human))","kinase still bound, per cent of control (FLT3 (human))","kinase still bound, per cent of control (MAP3K9 (human))","kinase still bound, per cent of control (INSRR (human))","kinase still bound, per cent of control (TLK1 (human))","kinase still bound, per cent of control (LIMK2 (human))","kinase still bound, per cent of control (EPHA7 (human))",further results
Cc1ccc2nc(NCCN)c3ncc(C)n3c2c1,90%,100%,100%,100%,100%,100%,84%,99%,100%,61%,65%,93%,100%,16%,100%,100%,100%,82%,100%,100%,"kinase still bound, per cent of control (MAP2K3 (human)): 95%; kinase still bound, per cent of control (ULK2 (human)): 100%; kinase still bound, per cent of control (MAPK14 (human)): 98%; kinase still bound, per cent of control (CAMK2G (human)): 100%; kinase still bound, per cent of control (MAPK4 (human)): 89%; kinase still bound, per cent of control (PAK7 (human)): 100%; kinase still bound, per cent of control (ACVR2B (human)): 100%; kinase still bound, per cent of control (AURKA (human)): 100%; kinase still bound, per cent of control (CLK3 (human)): 47%; kinase still bound, per cent of control (CAMK2A (human)): 78%; kinase still bound, per cent of control (PHKG2 (human)): 79%; kinase still bound, per cent of control (DCLK1 (human)): 84%; kinase still bound, per cent of control (RPS6KA5 KD2 (human)): 85%; kinase still bound, per cent of control (PRKACA (human)): 100%; kinase still bound, per cent of control (HIPK1 (human)): 21%; kinase still bound, per cent of control (SIK2 (human)): 82%; kinase still bound, per cent of control (MAPK7 (human)): 0.7%; kinase still bound, per cent of control (BMPR1A (human)): 32%; kinase still bound, per cent of control (PLK3 (human)): 94%"
CCCS(=O)(=O)Nc1ccc(F)c(C(=O)c2c[nH]c3ncc(-c4ccc(Cl)cc4)cc23)c1F,100%,9.1%,16%,35%,69%,77%,100%,78%,100%,100%,95%,2.5%,100%,8%,2.4%,52%,73%,95%,24%,100%,"kinase still bound, per cent of control (ULK2 (human)): 100%; kinase still bound, per cent of control (STK11 (human)): 75%; kinase still bound, per cent of control (MAPK14 (human)): 70%; kinase still bound, per cent of control (CAMK2G (human)): 95%; kinase still bound, per cent of control (MAPK4 (human)): 100%; kinase still bound, per cent of control (PAK7 (human)): 78%; kinase still bound, per cent of control (ACVR2B (human)): 27%; kinase still bound, per cent of control (AURKA (human)): 81%; kinase still bound, per cent of control (CLK3 (human)): 92%; kinase still bound, per cent of control (CAMK2A (human)): 100%; kinase still bound, per cent of control (PHKG2 (human)): 100%; kinase still bound, per cent of control (DCLK1 (human)): 88%; kinase still bound, per cent of control (RPS6KA5 KD2 (human)): 100%; kinase still bound, per cent of control (PRKACA (human)): 100%; kinase still bound, per cent of control (HIPK1 (human)): 90%; kinase still bound, per cent of control (SIK2 (human)): 61%; kinase still bound, per cent of control (MAPK7 (human)): 69%; kinase still bound, per cent of control (BMPR1A (human)): 34%; kinase still bound, per cent of control (PLK3 (human)): 93%"
C[C@@H](Oc1cc(-n2cnc3ccc(CN4CCN(C)CC4)cc32)sc1C(N)=O)c1ccccc1C(F)(F)F,42%,100%,100%,77%,48%,16%,100%,100%,100%,77%,15%,100%,84%,77%,11%,17%,100%,71%,100%,83%,"kinase still bound, per cent of control (MAP2K3 (human)): 52%; kinase still bound, per cent of control (STK11 (human)): 90%; kinase still bound, per cent of control (MAPK14 (human)): 100%; kinase still bound, per cent of control (CAMK2G (human)): 15%; kinase still bound, per cent of control (MAPK4 (human)): 100%; kinase still bound, per cent of control (PAK7 (human)): 60%; kinase still bound, per cent of control (ACVR2B (human)): 100%; kinase still bound, per cent of control (AURKA (human)): 100%; kinase still bound, per cent of control (CLK3 (human)): 91%; kinase still bound, per cent of control (CAMK2A (human)): 4.9%; kinase still bound, per cent of control (PHKG2 (human)): 43%; kinase still bound, per cent of control (DCLK1 (human)): 40%; kinase still bound, per cent of control (RPS6KA5 KD2 (human)): 34%; kinase still bound, per cent of control (PRKACA (human)): 100%; kinase still bound, per cent of control (HIPK1 (human)): 40%; kinase still bound, per cent of control (SIK2 (human)): 61%; kinase still bound, per cent of control (MAPK7 (human)): 91%; kinase still bound, per cent of control (BMPR1A (human)): 28%; kinase still bound, per cent of control (PLK3 (human)): 3.6%"
O=C(O)c1ccc(Nc2ncc3c(n2)-c2ccc(Cl)cc2C(c2c(F)cccc2F)=NC3)cc1,100%,17%,73%,3.6%,80%,89%,65%,59%,11%,88%,41%,58%,97%,38%,80%,70%,100%,77%,94%,8.8%,"kinase still bound, per cent of control (ULK2 (human)): 100%; kinase still bound, per cent of control (STK11 (human)): 92%; kinase still bound, per cent of control (MAPK14 (human)): 93%; kinase still bound, per cent of control (CAMK2G (human)): 98%; kinase still bound, per cent of control (MAPK4 (human)): 66%; kinase still bound, per cent of control (PAK7 (human)): 93%; kinase still bound, per cent of control (ACVR2B (human)): 100%; kinase still bound, per cent of control (AURKA (human)): 0.5%; kinase still bound, per cent of control (CLK3 (human)): 14%; kinase still bound, per cent of control (CAMK2A (human)): 69%; kinase still bound, per cent of control (PHKG2 (human)): 73%; kinase still bound, per cent of control (RPS6KA5 KD2 (human)): 74%; kinase still bound, per cent of control (PRKACA (human)): 47%; kinase still bound, per cent of control (HIPK1 (human)): 14%; kinase still bound, per cent of control (SIK2 (human)): 49%; kinase still bound, per cent of control (MAPK7 (human)): 100%; kinase still bound, per cent of control (BMPR1A (human)): 36%; kinase still bound, per cent of control (PLK3 (human)): 18%"
